Laboratory results from ChEMBL document CHEMBL1154899, “Synthesis and biological evaluation of caffeic acid 3,4-dihydroxyphenethyl ester” (J Nat Prod, 2010).

Columns and labels:
Assay type in all cases: functional
TK-10 = test: Antiproliferative activity against human TK10 cells by SRB assay
DU-145 [1] = test: Antiproliferative activity against human DU145 cells assessed as cell growth at 50 uM by SRB assay; conditions: read-out: Activity
HOP-92 = test: Antiproliferative activity against human HOP92 cells assessed as cell growth at 500 uM by SRB assay; conditions: read-out: Activity
SF-268 = test: Antiproliferative activity against human SF268 cells by SRB assay
[2] = Antiproliferative activity against human […] cells assessed as cell growth at 500 uM by SRB assay; conditions: read-out: Activity
T47D = test: Antiproliferative activity against human T47D cells assessed as cell growth at 5 uM by SRB assay; conditions: read-out: Activity
DU-145 [3] = test: Antiproliferative activity against human DU145 cells assessed as cell growth at […] by SRB assay; conditions: read-out: Activity
SK-OV-3 = test: Antiproliferative activity against human SKOV3 cells assessed as cell growth at 0.5 uM by SRB assay; conditions: read-out: Activity
KM12 = test: Antiproliferative activity against human KM12 cells assessed as cell growth at 5 uM by SRB assay; conditions: read-out: Activity
SK-MEL-5 = test: Antiproliferative activity against human SK-MEL-5 cells assessed as cell growth at 5 uM by SRB assay; conditions: read-out: Activity
UACC-257 = test: Antiproliferative activity against human UACC257 cells assessed as cell growth at 500 uM by SRB assay; conditions: read-out: Activity
SNB-19 = test: Antiproliferative activity against human SNB19 cells by SRB assay
SNB-75 = test: Antiproliferative activity against human SNB75 cells assessed as cell growth at 0.5 uM by SRB assay; conditions: read-out: Activity
SK-MEL-2 = test: Antiproliferative activity against human SK-MEL-2 cells assessed as cell growth at 5 uM by SRB assay; conditions: read-out: Activity
MCF7 = test: Antiproliferative activity against human MCF7 cells assessed as cell growth at 50 uM by SRB assay; conditions: read-out: Activity
IGROV-1 = test: Antiproliferative activity against human IGROV1 cells assessed as cell growth at 50 uM by SRB assay; conditions: read-out: Activity
SR = test: Antiproliferative activity against human SR cells by SRB assay
NCI-H322M = test: Antiproliferative activity against human NCI-H322M cells assessed as cell growth at 500 uM by SRB assay; conditions: read-out: Activity
OVCAR-4 = test: Antiproliferative activity against human OVCAR4 cells by SRB assay
OVCAR-5 = test: Antiproliferative activity against human OVCAR5 cells at 50 uM by SRB assay
SF-539 = test: Antiproliferative activity against human SF539 cells assessed as cell growth at 500 uM by SRB assay; conditions: read-out: Activity
[4] = read-out: LC50 (the source's name)
[5] = read-out: pLC50 (the source's name) (converted)

With `O=C(/C=C/c1ccc(O)c(O)c1)OCCc1ccc(O)c(O)c1` the GI50 (TK-10; read-out: GI50) was 28.1 µM, the CC50 (TK-10; [4]) was > 50 µM and the TGI (TK-10; read-out: TGI) was > 50 µM. For the same compound, the GI50 (TK-10; read-out: pGI50 (converted)) was 28.2 µM, the CC50 (TK-10; [5]) was > 50.1 µM and the TGI (TK-10; read-out: pTGI) was > 50.1 µM. For the same compound, the growth at 50 µM (DU-145 [1]) was 100%, the growth at 500 µM (HOP-92) was 29% and the GI50 (SF-268; read-out: GI50) was 6.93 µM. The CC50 (SF-268; [4]) was > 50 µM, the TGI (SF-268; read-out: TGI) was > 50 µM and the GI50 (SF-268; read-out: pGI50 (converted)) was 6.61 µM. For the same compound, the CC50 (SF-268; [5]) was > 50.1 µM, the TGI (SF-268; read-out: pTGI) was > 50.1 µM and the growth at 500 µM [2] was 11%. For the same compound, the growth at 5 µM (T47D) was 102%, the growth (DU-145 [3]) was -22% and the growth at 0.5 µM (SK-OV-3) was 99%. It also gave a growth at 5 µM (KM12) of 95%, a growth at 5 µM (SK-MEL-5) of 97% and a growth at 500 µM (UACC-257) of 83%. The GI50 (SNB-19; read-out: GI50) was 15.5 µM, the CC50 (SNB-19; [4]) was > 50 µM and the TGI (SNB-19; read-out: TGI) was > 50 µM. For the same compound, the GI50 (SNB-19; read-out: pGI50 (converted)) was 15.5 µM, the CC50 (SNB-19; [5]) was > 50.1 µM and the TGI (SNB-19; read-out: pTGI) was > 50.1 µM. For the same compound, the growth at 0.5 µM (SNB-75) was 81%, the growth at 5 µM (SK-MEL-2) was 95% and the growth at 50 µM (MCF7) was 92%. For the same compound, the growth at 50 µM (IGROV-1) was 98%, the GI50 (SR; read-out: GI50) was 1.49 µM and the CC50 (SR; [4]) was > 50 µM. The TGI (SR; read-out: TGI) was 12.7 µM, the GI50 (SR; read-out: pGI50 (converted)) was 1.48 µM and the CC50 (SR; [5]) was > 50.1 µM. The TGI (SR; read-out: pTGI (converted)) was 12.6 µM, the growth at 500 µM (NCI-H322M) was 86% and the GI50 (OVCAR-4) was 7.37 µM. For the same compound, the CC50 (OVCAR-4; [4]) was > 50 µM, the TGI (OVCAR-4; read-out: TGI) was > 50 µM and the CC50 (OVCAR-4; [5]) was > 50.1 µM. For the same compound, the TGI (OVCAR-4; read-out: pTGI) was > 50.1 µM, the Activity (OVCAR-5) was 97% and the growth at 500 µM (SF-539) was 55%.
